{"source": "patent US20210261642A1", "about": "“SOLUBILITY OF GLP-1 PEPTIDE” (Novo Nordisk A/S, priority 2017, published 2021)", "experiment": "Assay (I): Determination of Solubility (96-well plate, pH 3.0-11.0, organic solvent 0-70% w/w, UV absorption at 280 nm)", "format": "physicochemical", "conditions": "Method 1", "method": "Assay (I): Determination of Solubility\n96-Well Plate Preparation\n96-well plates containing target peptide in a solid form were prepared in one of two ways:\nMethod 1 (evaporation): Addition of 100 μl stock solution of said peptide at a concentration of 4-6 mg/ml to each well of a 96-well half area plate (150 μl well size). Subsequently the solvent was evaporated by applying a vacuum until the solvent was completely removed.\nMethod 2 (precipitation): Addition of a certain volume of a stock solution of said peptide containing to each well of a 96-well half area plate followed by the addition of a certain volume of concentrated phosphoric acid to obtain a pH of 4.6 followed by addition of a certain volume of ethanol resulting in a final ethanol concentration of 20% v/v. Subsequently the plate was stored at 4° C. for 1 h and then centrifuged at 4,000 rpm for 20 min. Finally the supernatant was removed. The concentration of the stock solution was chosen in a way that the final amount of peptide after supernatant removal was >0.4 mg per well.\nIn both cases the stock solution was prepared by adding de-ionized water to a certain amount of powder of said peptide followed by a stepwise addition of small amounts of a concentrated sodium hydroxide solution until said peptide was completely in solution.\nTo determine solubility of a target peptide at different pH and organic solvent concentrations, two different buffer systems were used in independent experiments to cover the whole range from pH 3.0 to pH 11.0. Buffer system 1 covers pH 3.0-7.5 and buffer system 2 covers pH 7.5-11.0. For each buffer system 96 different solvent compositions were premixed in the following way: • 1. A low pH buffer (adjusted to either pH 3.0 or pH 7.5) and a high pH buffer (adjusted to either pH 7.5 or pH 11.0) were mixed at 8 different ratios to obtain values between pH 3.0 and pH 7.5 or pH 7.5 and pH 11.0, respectively. The total volume after mixing was 300 μl. • 2. 12 different amounts of organic solvent were then added to these buffers to obtain organic solvent (e.g. ethanol) concentrations between 0 and 70% w/w. • 3. Water was then added to obtain a total weight of 1.0 g of solvent in each well.\nAfter preparing the 96 different solvent systems, 100 μl of each system was transferred to the 96-well plate containing the solid form of the target peptide (prepared as described in the section “96-well plate preparation”). The plate was then stored at a given temperature (between 5° C. and 70° C.) for a given time on a rotating shaker set to 400 rpm. At regular time intervals the plate was centrifuged (4,000 rpm for 10 min) and a 10 μl sample was taken from each well. The samples were then analysed by UV absorption at 280 nm for peptide quantification. Peptide concentration results are given as UV absorption at 280 nm of the sample subtracted UV absorption at 280 nm of a well comprising 10 μl water.\nThe buffers used were as follows: • Buffer system 1 (for the pH range from pH 3.0-7.5)\n• Buffer system 2 (for the pH ranae from pH 7.5-11.0)\nSolubility of liraglutide was determined using Assay (I) described herein. Liraglutide was prepared using Method 1 (evaporation) or Method 2 (precipitation) as described in subsection “96-well plate preparation”.", "data": [{"smiles": "CCCCCCCCCCCCCCCC(=O)N[C@@H](CCC(=O)NCCCC[C@H](NC(=O)[C@H](C)NC(=O)[C@H](C)NC(=O)[C@H](CCC(N)=O)NC(=O)CNC(=O)[C@H](CCC(=O)O)NC(=O)[C@H](CC(C)C)NC(=O)[C@H](Cc1ccc(O)cc1)NC(=O)[C@H](CO)NC(=O)[C@H](CO)NC(=O)[C@@H](NC(=O)[C@H](CC(=O)O)NC(=O)[C@H](CO)NC(=O)[C@@H](NC(=O)[C@H](Cc1ccccc1)NC(=O)[C@@H](NC(=O)CNC(=O)[C@H](CCC(=O)O)NC(=O)[C@H](C)NC(=O)[C@@H](N)Cc1cnc[nH]1)[C@@H](C)O)[C@@H](C)O)C(C)C)C(=O)N[C@@H](CCC(=O)O)C(=O)N[C@@H](Cc1ccccc1)C(=O)N[C@H](C(=O)N[C@@H](C)C(=O)N[C@@H](Cc1c[nH]c2ccccc12)C(=O)N[C@@H](CC(C)C)C(=O)N[C@H](C(=O)N[C@@H](CCCNC(=N)N)C(=O)NCC(=O)N[C@@H](CCCNC(=N)N)C(=O)NCC(=O)O)C(C)C)[C@@H](C)CC)C(=O)O", "note": "[liraglutide, Arg34,Lys26-(N-epsilon-(gamma-L-glutamyl(N-alfa-hexadecanoyl)))-GLP-1(7-37)]", "values": [{"measurement": "Peptide concentration after 180 min", "setting": "MeCN 6.4% w/w, pH 3.6, 5° C.", "result": 0.1, "unit": "mg/mL"}, {"measurement": "Peptide concentration after 24 h", "setting": "MeCN 6.4% w/w, pH 3.6, 5° C.", "result": 0.2, "unit": "mg/mL"}, {"measurement": "Peptide concentration after 24 h", "setting": "MeCN 6.4% w/w, pH 3.6, RT", "result": 0.1, "unit": "mg/mL"}, {"measurement": "Peptide concentration after 5 min", "setting": "MeCN 6.4% w/w, pH 4.3, 5° C.", "result": 0.1, "unit": "mg/mL"}, {"measurement": "Peptide concentration after 180 min", "setting": "MeCN 6.4% w/w, pH 4.3, 5° C.", "result": 0.1, "unit": "mg/mL"}, {"measurement": "Peptide concentration after 24 h", "setting": "MeCN 6.4% w/w, pH 4.3, 5° C.", "result": 0.2, "unit": "mg/mL"}, {"measurement": "Peptide concentration after 5 min", "setting": "MeCN 6.4% w/w, pH 8.0, 5° C.", "result": 0.8, "unit": "mg/mL"}, {"measurement": "Peptide concentration after 180 min", "setting": "MeCN 6.4% w/w, pH 8.0, 5° C.", "result": 2.2, "unit": "mg/mL"}, {"measurement": "Peptide concentration after 24 h", "setting": "MeCN 6.4% w/w, pH 8.0, 5° C.", "result": ">4.0", "unit": "mg/mL"}, {"measurement": "Peptide concentration after 5 min", "setting": "MeCN 6.4% w/w, pH 8.5, 5° C.", "result": 0.8, "unit": "mg/mL"}, {"measurement": "Peptide concentration after 180 min", "setting": "MeCN 6.4% w/w, pH 8.5, 5° C.", "result": 2.6, "unit": "mg/mL"}, {"measurement": "Peptide concentration after 24 h", "setting": "MeCN 6.4% w/w, pH 8.5, 5° C.", "result": ">4.0", "unit": "mg/mL"}, {"measurement": "Peptide concentration after 5 min", "setting": "MeCN 6.4% w/w, pH 9.0, 5° C.", "result": 1.0, "unit": "mg/mL"}, {"measurement": "Peptide concentration after 180 min", "setting": "MeCN 6.4% w/w, pH 9.0, 5° C.", "result": 2.9, "unit": "mg/mL"}, {"measurement": "Peptide concentration after 24 h", "setting": "MeCN 6.4% w/w, pH 9.0, 5° C.", "result": ">4.0", "unit": "mg/mL"}, {"measurement": "Peptide concentration after 5 min", "setting": "MeCN 6.4% w/w, pH 9.5, 5° C.", "result": 0.6, "unit": "mg/mL"}, {"measurement": "Peptide concentration after 180 min", "setting": "MeCN 6.4% w/w, pH 9.5, 5° C.", "result": 2.5, "unit": "mg/mL"}, {"measurement": "Peptide concentration after 24 h", "setting": "MeCN 6.4% w/w, pH 9.5, 5° C.", "result": ">4.0", "unit": "mg/mL"}, {"measurement": "Peptide concentration after 5 min", "setting": "MeCN 6.4% w/w, pH 10.0, 5° C.", "result": 1.0, "unit": "mg/mL"}, {"measurement": "Peptide concentration after 180 min", "setting": "MeCN 6.4% w/w, pH 10.0, 5° C.", "result": 3.1, "unit": "mg/mL"}, {"measurement": "Peptide concentration after 24 h", "setting": "MeCN 6.4% w/w, pH 10.0, 5° C.", "result": ">4.0", "unit": "mg/mL"}, {"measurement": "Peptide concentration after 5 min", "setting": "MeCN 6.4% w/w, pH 10.5, 5° C.", "result": 0.7, "unit": "mg/mL"}, {"measurement": "Peptide concentration after 180 min", "setting": "MeCN 6.4% w/w, pH 10.5, 5° C.", "result": 2.6, "unit": "mg/mL"}, {"measurement": "Peptide concentration after 24 h", "setting": "MeCN 6.4% w/w, pH 10.5, 5° C.", "result": ">4.0", "unit": "mg/mL"}, {"measurement": "Peptide concentration after 5 min", "setting": "MeCN 6.4% w/w, pH 11.0, 5° C.", "result": 0.7, "unit": "mg/mL"}, {"measurement": "Peptide concentration after 180 min", "setting": "MeCN 6.4% w/w, pH 11.0, 5° C.", "result": 1.7, "unit": "mg/mL"}, {"measurement": "Peptide concentration after 24 h", "setting": "MeCN 6.4% w/w, pH 11.0, 5° C.", "result": ">4.0", "unit": "mg/mL"}, {"measurement": "Peptide concentration after 5 min", "setting": "MeCN 12.7% w/w, pH 8.0, 5° C.", "result": 1.3, "unit": "mg/mL"}, {"measurement": "Peptide concentration after 180 min", "setting": "MeCN 12.7% w/w, pH 8.0, 5° C.", "result": 2.2, "unit": "mg/mL"}, {"measurement": "Peptide concentration after 24 h", "setting": "MeCN 12.7% w/w, pH 8.0, 5° C.", "result": ">4.0", "unit": "mg/mL"}, {"measurement": "Peptide concentration after 5 min", "setting": "MeCN 12.7% w/w, pH 8.5, 5° C.", "result": 0.8, "unit": "mg/mL"}, {"measurement": "Peptide concentration after 180 min", "setting": "MeCN 12.7% w/w, pH 8.5, 5° C.", "result": 2.1, "unit": "mg/mL"}, {"measurement": "Peptide concentration after 24 h", "setting": "MeCN 12.7% w/w, pH 8.5, 5° C.", "result": ">4.0", "unit": "mg/mL"}, {"measurement": "Peptide concentration after 5 min", "setting": "MeCN 12.7% w/w, pH 9.0, 5° C.", "result": 0.8, "unit": "mg/mL"}, {"measurement": "Peptide concentration after 180 min", "setting": "MeCN 12.7% w/w, pH 9.0, 5° C.", "result": 1.8, "unit": "mg/mL"}, {"measurement": "Peptide concentration after 24 h", "setting": "MeCN 12.7% w/w, pH 9.0, 5° C.", "result": ">4.0", "unit": "mg/mL"}, {"measurement": "Peptide concentration after 5 min", "setting": "MeCN 12.7% w/w, pH 9.5, 5° C.", "result": 0.9, "unit": "mg/mL"}, {"measurement": "Peptide concentration after 180 min", "setting": "MeCN 12.7% w/w, pH 9.5, 5° C.", "result": 1.9, "unit": "mg/mL"}, {"measurement": "Peptide concentration after 24 h", "setting": "MeCN 12.7% w/w, pH 9.5, 5° C.", "result": ">4.0", "unit": "mg/mL"}, {"measurement": "Peptide concentration after 5 min", "setting": "MeCN 12.7% w/w, pH 10.0, 5° C.", "result": 0.8, "unit": "mg/mL"}, {"measurement": "Peptide concentration after 180 min", "setting": "MeCN 12.7% w/w, pH 10.0, 5° C.", "result": 2.3, "unit": "mg/mL"}, {"measurement": "Peptide concentration after 24 h", "setting": "MeCN 12.7% w/w, pH 10.0, 5° C.", "result": ">4.0", "unit": "mg/mL"}, {"measurement": "Peptide concentration after 5 min", "setting": "MeCN 12.7% w/w, pH 10.5, 5° C.", "result": 1.1, "unit": "mg/mL"}, {"measurement": "Peptide concentration after 180 min", "setting": "MeCN 12.7% w/w, pH 10.5, 5° C.", "result": 2.1, "unit": "mg/mL"}, {"measurement": "Peptide concentration after 24 h", "setting": "MeCN 12.7% w/w, pH 10.5, 5° C.", "result": ">4.0", "unit": "mg/mL"}, {"measurement": "Peptide concentration after 5 min", "setting": "MeCN 12.7% w/w, pH 11.0, 5° C.", "result": 0.6, "unit": "mg/mL"}, {"measurement": "Peptide concentration after 180 min", "setting": "MeCN 12.7% w/w, pH 11.0, 5° C.", "result": 1.5, "unit": "mg/mL"}, {"measurement": "Peptide concentration after 24 h", "setting": "MeCN 12.7% w/w, pH 11.0, 5° C.", "result": ">4.0", "unit": "mg/mL"}, {"measurement": "Peptide concentration after 5 min", "setting": "MeCN 19.1% w/w, pH 8.0, 5° C.", "result": 1.0, "unit": "mg/mL"}, {"measurement": "Peptide concentration after 180 min", "setting": "MeCN 19.1% w/w, pH 8.0, 5° C.", "result": 2.7, "unit": "mg/mL"}, {"measurement": "Peptide concentration after 24 h", "setting": "MeCN 19.1% w/w, pH 8.0, 5° C.", "result": ">4.0", "unit": "mg/mL"}]}]}
